Test results reported in patent US8906425B2, “Stimulation of the synthesis of the activity of an isoform of lysyl oxidase-like LOXL for stimulating the formation of elastic fibers” (BASF Beauty Care Solutions France S.A.S., priority 2003, dated 2014).
Marks after values point to notes of the source that are not given here.

Experiments:
LOXL mRNA = assay: Real time RT-PCR effectiveness study, LOXL mRNA; type: cell-based, human; details: 24 hours, adult fibroblasts (donor)
Description: (§1) […] The culture was carried out e.g. in monolayer in 24-well plates, in a defined medium without serum. (Fibroblast Basal Medium). The cells are sown e.g. at 40,000 per cm^2. After the time of placing the actives in contact with the cells (24 hours), the media were removed and the cells were preserved e.g. by dry freezing at −80° C. after a rinsing with phosphate buffer at pH 7.4. At the end of experimentation, the content of mRNA of elastin, of LOXL and of actin is evaluated by an mRNA analysis technique, e.g. by real time RT-PCR. For this, the couples of primers enabling the amplification of specific fragments of these genes are those described above (Example 10).
(§2) After extraction e.g. with the aid of an extraction kit in 96-wells on silica columns and determination on a 96-well spectrophotometer at 260 nm, the RNAs are diluted e.g. to 5 ng/μl. The RT-PCR reactions (Reverse Polymerase Transcription Chain Reactions) were carried out by quantitative real time RT-PCR with the aid of the “Opticon” system (MJ Research). Advantageously, the reaction mixture (50 μl) introduced into the wells was the following, for each sample: • 10 μl of RNA at a concentration of 5 ng/μl, • The specific primers of the various labels sought after, • Reaction mixture (Qiagen 25 μl 2xQuantiTect SYBR Green RT-PCR master mix containing 5 mM MgCl2+0.5 μl QuantiTect RT mix), the label SYBR Green I inserting in the DNA double strands during the elongation step. […] Analysis and Method of Calculation: The incorporation of fluorescence in the amplified DNA was evaluated continuously during the PCR cycles. This system enabled obtaining curves of fluorescence measurement as a function of the number of PCR cycles and thus enabled evaluating a relative amount of amplified DNA. […] According to the experimentation, the threshold of measurement of the C (T) (=Cycle Threshold) was fixed for T between 0.05 and 0.01, and then an arbitrary measurement unit is calculated for each gene according to the formula: Sgene ? x ? =10^7×(½)^C(T)gene ? ^x ? […]

LOX mRNA = assay: Real time RT-PCR effectiveness study, LOX mRNA; type: cell-based, human; details: active at 5%, 24 hours, adult fibroblasts (donor)
elastin mRNA [1] = assay: Real time RT-PCR effectiveness study, elastin mRNA; type: cell-based, human; details: 24 hours, adult fibroblasts (donor)
Description: as §1, §2

elastin mRNA [2] = assay: Positive controls: stimulation of elastin mRNA synthesis by quantitative RT-PCR; type: cell-based; details: fibroblasts of normal human skin
Description: (§3) The active principles were tested at 1% (v/v) on fibroblasts of normal human skin (originating from the foreskin of the infant or originating from the adult). The culture was carried out, e.g. in a monolayer on 24-well culture plates, in a defined medium without serum (Fibroblast Basal Medium). The cells were sown, e.g. at 40,000 per cm^2. At the confluence, the cells are placed in contact with the actives advantageously for 24 hours. In parallel, a non-treated control (medium alone) and three positive controls (TGF-β at 1 ng/ml, IL-1α at 50 pg/ml and Phytokine® (Coletica, Lyons, France) at 2% (v/v)) are advantageously carried out, e.g. on the same culture plate. The TGF-β at 1 ng/ml and the IL-1α at 50 pg/ml were tested beforehand and the stimulation of the synthesis of elastin mRNA induced by these two cytokines at these concentrations was verified by an analysis of the mRNAs, e.g. by quantitative RT-PCR (×10 for TGF-β and ×6 for IL-1 alpha). After the time of placing the actives in contact with the cells, e.g. 24 hours, the media are removed and the cells are preserved e.g. by dry freezing at −80° C. after a rinsing in phosphate buffer pH 7.4. The total RNAs are extracted e.g. with the aid of an extraction kit of 96 wells on silica columns and were determined on a 96-well spectrophotometer at 260 nm (purity indicator: protein determination at 280 nm). […]

elastin (Eln) mRNA = assay: Screening of active principles by qualitative RT-PCR, elastin mRNA; type: cell-based, human; details: actives at 1% (v/v), 24 hours, adult abdomen fibroblasts (donor), mRNA vs actin and non-treated control
Description: as §3

## CCCC(=O)OC [methyl butyrate]
LOXL mRNA; active at 0.01%
  LOXL Control multiplied by:: 0.89
LOXL mRNA; active at 1%
  LOXL Control multiplied by:: 2.10*
LOXL mRNA; active at 5%
  LOXL Control multiplied by:: 0.91
LOX mRNA
  LOX Control multiplied by:: 0.91
Elastin mRNA [1]; active at 0.01%
  El Control multiplied by:: 0.92
Elastin mRNA [1]; active at 0.1%
  El Control multiplied by:: 0.96
Elastin mRNA [1]; active at 5%
  El Control multiplied by:: 1.70*

## TGF-β [reference compound]
Elastin mRNA [2]; TGF-β at 1 ng/ml
  stimulation of the synthesis of elastin mRNA (×): 10

## ethyl hexenoate
Elastin (Eln) mRNA
  Eln Control multiplied by:: 1.5

B1: IL-1 alpha: cytokine used as positive control at 50 pg/ml (protein, UniProt P01583 113-271, looked up)
Interleukin-1 alpha: SAPFSFLSNVKYNFMRIIKYEFILNDALNQSIIRANDQYLTAAALHNLDEAVKFDMGAYKSSKDDAKITVILRISKTQLYVTAQDEDQPVLLKEMPEIPKTITGSETNLLFFWETHGTKNYFTSVAHPNLFIATKQDYWVCLAGGPPSITDFQILENQA
Elastin mRNA [2]; IL-1α at 50 pg/ml
  stimulation of the synthesis of elastin mRNA (×): 6
